ChEMBL document CHEMBL4014287, “Jesridonin in combination with paclitaxel demonstrates synergistic anti-tumor activity in human esophageal carcinoma cells” (Bioorg Med Chem Lett, 2017)
Calls of active or inactive are those of the source. The rule behind the calls is not given here.

Experiments:
[1] = test system: ECa-109 cell line; test: Cytotoxicity against human EC109 cells assessed as combination index at 5 uM in presence of 5 nM paclitaxel; type: functional
[2] = test system: ECa-109 cell line; test: Induction of apoptosis in human EC109 cells assessed as viable cells at 15 uM after 24 hrs in presence of paclitaxel by Annexin V-FITC/propidium iodide staining based flow cytometry (reference value: 96.1%); type: functional; conditions: ECa-109, 24 h, read-out: Activity
[3] = test system: ECa-109 cell line; test: Antitumor activity against human EC109 cells xenografted in nude mouse assessed as reduction in tumor size at 10 mg/kg in presence of 5 mg/kg paclitaxel measured after 21 days; type: functional, organism-based
[4] = test system: ECa-109 cell line; test: Induction of apoptosis in human EC109 cells assessed as nuclear shrinkage at 15 uM after 24 hrs by Hochest 33258 staining based fluorescent microscopic analysis; type: functional, cell-based
[5] = test system: ECa-109 cell line; test: Induction of apoptosis in human EC109 cells assessed as necrotic cells at 15 uM after 24 hrs by Annexin V-FITC/propidium iodide staining based flow cytometry (reference value: 1.6 %); type: functional
[6] = test system: Mus musculus; test: Toxicity in nude mouse xenografted with human EC109 cells assessed as skin ulceration at 10 mg/kg in presence of paclitaxel measured after 21 days; type: organism-based; conditions: in vivo, 504 h
[7] = test system: Mus musculus; test: Hepatotoxicity in nude mouse xenografted with human EC109 cells assessed as change in serum ALP level at 10 mg/kg in presence of paclitaxel measured after 21 days; type: toxicity, organism-based; conditions: in vivo, 504 h
[8] = test system: ECa-109 cell line; test: Cytotoxicity against human EC109 cells assessed as combination index at 10 uM in presence of 10 nM paclitaxel; type: functional
[9] = test system: ECa-109 cell line; test: Induction of apoptosis in human EC109 cells assessed as increase in PUMA level at 15 uM in presence of 5 nM paclitaxel by Western blot method; type: functional, cell-based
[10] = test system: ECa-109 cell line; test: Cytotoxicity against human EC109 cells assessed as combination index at 5 uM in presence of 10 nM paclitaxel; type: functional
[11] = test system: ECa-109 cell line; test: Cytotoxicity against human EC109 cells assessed as combination index at 10 uM in presence of 5 nM paclitaxel; type: functional
[12] = test system: Mus musculus; test: Toxicity in nude mouse xenografted with human EC109 cells assessed as skin ulceration at 10 mg/kg measured after 21 days; type: organism-based; conditions: in vivo, 504 h
[13] = test system: ECa-109 cell line; test: Cytotoxicity against human EC109 cells assessed as combination index at 15 uM in presence of 2.5 nM paclitaxel; type: functional
[14] = test system: ECa-109 cell line; test: Induction of apoptosis in human EC109 cells assessed as necrotic cells at 15 uM after 24 hrs in presence of paclitaxel by Annexin V-FITC/propidium iodide staining based flow cytometry (reference value: 1.6 %); type: functional
[15] = test system: Mus musculus; test: Hepatotoxicity in nude mouse xenografted with human EC109 cells assessed as change in serum total protein level at 10 mg/kg in presence of paclitaxel measured after 21 days; type: toxicity, organism-based; conditions: in vivo, 504 h
[16] = test system: ECa-109 cell line; test: Induction of apoptosis in human EC109 cells assessed as early apoptotic cells at 15 uM after 24 hrs in presence of paclitaxel by Annexin V-FITC/propidium iodide staining based flow cytometry (reference value: 1.3%); type: functional
[17] = test system: ECa-109 cell line; test: Antitumor activity against human EC109 cells xenografted in nude mouse assessed as induction of necrosis at 10 mg/kg measured after 21 days by H and E staining based assay; type: functional, organism-based
[18] = test system: ECa-109 cell line; test: Cytotoxicity against human EC109 cells assessed as combination index at 30 uM in presence of 10 nM paclitaxel; type: functional
[19] = test system: ECa-109 cell line; test: Induction of apoptosis in human EC109 cells assessed as early apoptotic cells at 15 uM after 24 hrs by Annexin V-FITC/propidium iodide staining based flow cytometry (reference value: 1.3%); type: functional
[20] = test system: Mus musculus; test: Hepatotoxicity in nude mouse xenografted with human EC109 cells assessed as change in serum albumin level at 10 mg/kg in presence of paclitaxel measured after 21 days; type: toxicity, organism-based; conditions: in vivo, 504 h
[21] = test system: ECa-109 cell line; test: Induction of apoptosis in human EC109 cells assessed as increase in Bax level at 15 uM in presence of 5 nM paclitaxel by Western blot method; type: functional, cell-based
[22] = test system: ECa-109 cell line; test: Cytotoxicity against human EC109 cells assessed as combination index at 30 uM in presence of 2.5 nM paclitaxel; type: functional
[23] = test system: ECa-109 cell line; test: Antitumor activity against human EC109 cells xenografted in nude mouse assessed as tumor growth inhibition at 10 mg/kg in presence of 5 mg/kg paclitaxel measured after 21 days relative to control; type: functional
[24] = test system: ECa-109 cell line; test: Induction of apoptosis in human EC109 cells assessed as nuclear condensation at 15 uM in presence of 5 nM paclitaxel after 24 hrs by Hochest 33258 staining based fluorescent microscopic analysis; type: functional, cell-based
[25] = test system: Mus musculus; test: Toxicity in nude mouse xenografted with human EC109 cells assessed as pathological changes at 10 mg/kg in presence of paclitaxel measured after 21 days; type: organism-based; conditions: in vivo, 504 h
[26] = test system: Mus musculus; test: Hepatotoxicity in nude mouse xenografted with human EC109 cells assessed as change in serum GGT level at 10 mg/kg in presence of paclitaxel measured after 21 days; type: toxicity, organism-based; conditions: in vivo, 504 h
[27] = test system: ECa-109 cell line; test: Induction of apoptosis in human EC109 cells assessed as nuclear shrinkage at 15 uM in presence of 5 nM paclitaxel after 24 hrs by Hochest 33258 staining based fluorescent microscopic analysis; type: functional, cell-based
[28] = test system: ECa-109 cell line; test: Cytotoxicity against human EC109 cells assessed as combination index at 10 uM in presence of 2.5 nM paclitaxel; type: functional
[29] = test system: ECa-109 cell line; test: Induction of apoptosis in human EC109 cells assessed as increase in Bid level at 15 uM in presence of 5 nM paclitaxel by Western blot method; type: functional, cell-based

## C=C1C(=O)[C@@]23[C@@H]4OC(c5ccc(Cl)cc5)O[C@@]25OC[C@@]2([C@H]([C@@H]5O)C(C)(C)CC[C@@H]2O)[C@@H]3CC[C@@H]14 (some centres undefined)
[1]
  CI: 0.75
[2]
  viability at 15 µM: 52.7%
[3]
  Activity: Active
[4]
  Activity: Active
[5]
  Activity: 1.3%
[6]
  Activity: Non-Toxic
[7]
  Activity: Non-Toxic
[8]
  CI: 0.43
[9]
  Activity: Active
[10]
  CI: 0.48
[11]
  CI: 0.43
[12]
  Activity: Non-Toxic
[13]
  CI: 0.6
[14]
  Activity: 1.5%
[15]
  Activity: Non-Toxic
[16]
  Activity: 36.1%
[17]
  Activity: Active
[18]
  CI: 1.12
[19]
  Activity: 20.2%
[20]
  Activity: Non-Toxic
[21]
  Activity: Active
[22]
  CI: 1.15
[23]
  TGI: 77.21%
[24]
  Activity: Active
[25]
  Activity: Non-Toxic
[26]
  Activity: Non-Toxic
[27]
  Activity: Active
[28]
  CI: 0.56
[29]
  Activity: Active
